Measurements: US9539229B2, “Intestinal tract-protecting agent containing hydroxylated fatty acid” (KYOTO UNIVERSITY, priority 2013, dated 2017)

What was measured:
[1] = tested on: IL-8 production in Caco-2 cells; test: IL-8 production in Caco-2 monolayer cells stimulated with IFN-γ and TNF-α (ELISA); format: cell-based, human; settings: 50 μM, IFN-γ and TNF-α stimulation, outer side culture medium 6 hr after TNF-α addition, FIG. 3A
Procedure: (§1) Caco-2 cells were placed in a 75 cm^2 tissue culture flask, and cultured up to about 80% confluence at 37° C. The cells were inoculated in a 12-well transwell (Transwell (registered trade mark)) cell culture chamber (permeable membrane; diameter 12 mm, pore size 0.4 μm) at a cell concentration of 2×10^5 cells/cm^2, and cultured at 37° C. for 14 days under 5% CO2 atmosphere to give Caco-2 monolayer cells. Furthermore, to verify whether or not tight junction is sufficiently formed, Caco-2 monolayer cells having transepithelial electrical resistance (TER) of about 900-1,000 Ωcm^2 or more were used for the assay. […]
(§2) To the inner side culture medium of each well of the Caco-2 monolayer cells prepared by the aforementioned method was added a solution of HYA, HYB, KetoA, KetoB or KetoC (each 50 μM concentration, 500 μL), and the mixture was cultured for 24 hr. […] TNF-α was added to 50 ng/mL, the mixture was further cultured for 6 hr, and the below-mentioned intestinal tract barrier protection effect was evaluated. […]
(§3) The intestinal tract barrier protection effect by test fatty acid solution was compared using transepithelial electrical resistance (TER) value (Ω·cm^2) and IL-8 production (pg/mL) as indices. With a resistance value measurement system (Millicell-ERS, Millipore) using an Ag/AgCl electrode, each TER value at 0, 1, 2, 3, 4, 5 and 6 hr after addition of TNF-α was measured. […]

[2] = tested on: IL-8 mRNA in Caco-2 cells; test: IL-8 mRNA expression in Caco-2 monolayer cells (real-time PCR); format: cell-based, human; settings: IFN-γ and TNF-α, FIG. 3B
Procedure: (§4) To the inner side culture medium of each well of the Caco-2 monolayer cells prepared by the aforementioned method was added a solution of HYA, HYB, KetoA, KetoB or KetoC (each 50 μM concentration, 500 μL), and the mixture was cultured for 24 hr. Then, IFN-γ was added to the outer side culture medium to the final concentration of 50 ng/mL and, after culture for 24 hr, the outer side medium was once removed. TNF-α was added to 50 ng/mL, the mixture was further cultured for 6 hr, and the below-mentioned intestinal tract barrier protection effect was evaluated. Also, a well free of test fatty acid and added with IFN-γ and TNF-α, and a well free of test fatty acid solution, IFN-γ and TNF-α (hereinafter to be also referred to as control) were prepared.
(§5) In the same manner as in the aforementioned Example, HYA was added and, 6 hr later, the Caco-2 monolayer cells were washed 3 times with PBS, and RNA was extracted with TRIzol (registered trade mark) (manufactured by Life Technologies) from the cells. RNA was reverse-transcribed using a high-capacity cDNA reverse transcription kit (Life Technologies) to give cDNA, and real-time PCR analysis was performed using KAPA SYBR FAST ABI PRISM qPCR kit (Kapa Biosystems). […]

[3] = tested on: tight junction-related factors in large intestinal tissues; test: Gene expression of tight junction-related factors in large intestinal tissues of DSS-induced enteritis model mouse (real-time PCR); format: in vivo, BALB/c mice; settings: oral 100 nmol/day, FIG. 10
Procedure: (§6) BALB/c mice (♀, 6-week-old) were purchased from Charles River Japan (Kanagawa, Japan), and all experiment plans were carried out in accordance with Hiroshima University, Animal Experiment Rule (No. C10-17). Acute colitis was induced by allowing free intake of 3.5% (w/v) DSS (molecular weight 36000-50000; MP Biomedicals, Aurora, Ohio, USA) for 5 days. To evaluate the effect of HYA and HYB on large intestine, 100 μL of a suspension of HYA or HYB (each 100 nmol) was orally administered to the mice. This administration was performed every day for total 10 days, for 5 days before DSS administration and 5 days after the start of the administration. The symptoms of colitis were evaluated every day based on a decrease in body weight, condition of feces and bleeding from the anus. After administration of DSS for 5 days, the mouse was sacrificed, and the length of the large intestine was measured. Thereafter, RNA was extracted from the large intestine tissue by using RNeasy Mini Kit (Qiagen, Maryland, Md., USA). Paraffin section (7 μm) of the large intestine tissue was produced, stained with hematoxylin-eosin, and histochemically evaluated. The extracted RNA was reverse-transcribed using a high-capacity cDNA reverse transcription kit (Life Technologies) to give cDNA, and real-time PCR analysis was performed using a KAPA SYBR FAST ABI PRISM qPCR kit (Kapa Biosystems). As the primer, oligoDNA pairs of nucleotide sequences were used: SEQ ID NOs: 5 and 6 for Claudin-1, SEQ ID NOs: 13 and 14 for Claudin-3, SEQ ID NOs: 15 and 16 for Claudin-4, SEQ ID NOs: 7 and 8 for ZO-1, SEQ ID NOs: 17 and 18 for ZO-2, SEQ ID NOs: 9 and 10 for Occludin, and SEQ ID NOs: 11 and 12 for MLCK.

Caco-2 monolayer cells = test: Intestinal tract barrier protection: transepithelial electrical resistance (TER) of Caco-2 monolayer cells stimulated with IFN-γ and TNF-α; format: cell-based, human; settings: 50 μM test fatty acid 24 hr, then IFN-γ 50 ng/mL 24 hr, TNF-α 50 ng/mL, 0-6 hr; FIG. 2
Procedure: as §1, §2, §3

[4] = tested on: tight junction-related factors (MLCK, occludin) in Caco-2 monolayer cells; test: Gene expression of tight junction-related factors in Caco-2 monolayer cells (real-time PCR); format: cell-based, human; settings: IFN-γ and TNF-α, 6 hr, FIG. 4
Procedure: as §4, §5

[5] = tested on: DSS-induced enteritis model mouse; test: Dextran sodium sulfate (DSS)-induced enteritis model mouse: body weight, feces, large intestine length, histology; format: in vivo, BALB/c mice; settings: 100 nmol orally every day for 10 days, 3.5% DSS for 5 days
Procedure: as §6

In the case of `CCCCCCCCC(O)CCCCCCCCC(=O)O` (centres unmarked) [HYB, 10-hydroxyoctadecanoic acid], the IL-8 production [1] is reported as “suppression of IL-8 production was observed”, the “mRNA expression of IL-8” value [2] is reported as “suppressed such increase in the expression” and the “mRNA expression of all TJ-associated factors (claudin-1, -3, -4, occludin, MLCK, ZO-1, ZO-2) in large intestine tissue” value ([3]; DSS mouse) is reported as “did not show recovery from abnormal expression of all TJ-associated factors”.
`CCCCC/C=C\CC(O)CCCCCCCCC(=O)O` (stereo not drawn) [HYA, 10-hydroxy-cis-12-octadecenoic acid] was tested, and the “TER relative value (Relative TER)” value (Caco-2 monolayer cells) was “showed suppression of a decrease in the TER relative value”, the IL-8 production [1] was “suppression of IL-8 production was observed” and the “mRNA expression of MLCK” value [4] was “suppression of an increase in the mRNA expression of MLCK”. The “mRNA expression of occludin” value [4] was “suppression of an increase in the mRNA expression of MLCK and a decrease in the mRNA expression of occludin”, the “mRNA expression of IL-8” value [2] was “suppressed such increase in the expression” and the weight loss ([5]; FIG. 5, 6) was “effective for the suppression of weight loss”. For the same molecule, the stool score ([5]; FIG. 7) was “recovery of stool score”, the “length of large intestine” value ([5]; FIG. 8) was “protection of large intestine” and the “histochemical evaluation of the large intestine section (H&E staining)” value ([5]; FIG. 9) was “showed recovery of tissue damage”. The “mRNA expression of MLCK in large intestine tissue” value ([3]; compared to the DSS mouse) was “significant recovery of the mRNA expression of occludin and MLCK” and the “mRNA expression of occludin in large intestine tissue” value ([3]; compared to the DSS mouse) was “significant recovery of the mRNA expression of occludin and MLCK”.
